The record followed here is ChEMBL document CHEMBL5653615 (J Biol Chem, 2013).

What is called inhibition is the drop in the measured response relative to a control, in per cent.

SMILES strings stand for the structures.

Experiment [1] has as its target T1, Serine/threonine-protein kinase D3 (Homo sapiens) (UniProt O94806).
T1 sequence (whole entry): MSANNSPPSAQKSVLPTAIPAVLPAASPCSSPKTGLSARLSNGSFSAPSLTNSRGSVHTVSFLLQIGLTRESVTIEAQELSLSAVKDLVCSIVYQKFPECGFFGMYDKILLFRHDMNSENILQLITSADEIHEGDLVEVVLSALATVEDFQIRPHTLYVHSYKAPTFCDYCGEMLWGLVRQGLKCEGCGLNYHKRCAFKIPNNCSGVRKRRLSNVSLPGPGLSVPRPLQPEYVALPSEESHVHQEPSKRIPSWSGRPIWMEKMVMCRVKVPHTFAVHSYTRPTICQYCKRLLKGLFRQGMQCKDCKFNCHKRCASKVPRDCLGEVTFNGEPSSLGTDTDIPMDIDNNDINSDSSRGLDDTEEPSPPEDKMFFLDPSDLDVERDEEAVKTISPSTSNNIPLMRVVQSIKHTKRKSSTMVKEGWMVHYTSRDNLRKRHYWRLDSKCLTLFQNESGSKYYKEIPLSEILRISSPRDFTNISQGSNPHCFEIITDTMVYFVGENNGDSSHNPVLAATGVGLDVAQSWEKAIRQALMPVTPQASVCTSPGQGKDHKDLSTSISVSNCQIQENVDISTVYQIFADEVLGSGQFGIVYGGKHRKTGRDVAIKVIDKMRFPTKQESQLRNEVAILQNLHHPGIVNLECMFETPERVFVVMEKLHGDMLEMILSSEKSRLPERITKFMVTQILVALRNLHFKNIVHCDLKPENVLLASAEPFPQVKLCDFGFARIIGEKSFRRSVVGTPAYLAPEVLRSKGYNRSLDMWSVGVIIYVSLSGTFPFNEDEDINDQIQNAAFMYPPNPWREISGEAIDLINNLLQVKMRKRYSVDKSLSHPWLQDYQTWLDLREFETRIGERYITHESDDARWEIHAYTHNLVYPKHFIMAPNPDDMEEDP
Nature of the experiment: Inhibition of human PRKD3 at 500 nM by HotSpot assay relative to control.

Experiment [2] has as its target Serine/threonine-protein kinase Nek7 (Homo sapiens) (UniProt Q8TDX7). Nature of the experiment: Inhibition of human NEK7 at 500 nM by HotSpot assay relative to control.
The target of experiment [3] is Tyrosine-protein kinase Fer (Homo sapiens) (UniProt P16591). Nature of the experiment: Inhibition of human FER at 500 nM by HotSpot assay relative to control.
Tyrosine-protein kinase Fer (Homo sapiens), sequence (P16591 whole entry, looked up): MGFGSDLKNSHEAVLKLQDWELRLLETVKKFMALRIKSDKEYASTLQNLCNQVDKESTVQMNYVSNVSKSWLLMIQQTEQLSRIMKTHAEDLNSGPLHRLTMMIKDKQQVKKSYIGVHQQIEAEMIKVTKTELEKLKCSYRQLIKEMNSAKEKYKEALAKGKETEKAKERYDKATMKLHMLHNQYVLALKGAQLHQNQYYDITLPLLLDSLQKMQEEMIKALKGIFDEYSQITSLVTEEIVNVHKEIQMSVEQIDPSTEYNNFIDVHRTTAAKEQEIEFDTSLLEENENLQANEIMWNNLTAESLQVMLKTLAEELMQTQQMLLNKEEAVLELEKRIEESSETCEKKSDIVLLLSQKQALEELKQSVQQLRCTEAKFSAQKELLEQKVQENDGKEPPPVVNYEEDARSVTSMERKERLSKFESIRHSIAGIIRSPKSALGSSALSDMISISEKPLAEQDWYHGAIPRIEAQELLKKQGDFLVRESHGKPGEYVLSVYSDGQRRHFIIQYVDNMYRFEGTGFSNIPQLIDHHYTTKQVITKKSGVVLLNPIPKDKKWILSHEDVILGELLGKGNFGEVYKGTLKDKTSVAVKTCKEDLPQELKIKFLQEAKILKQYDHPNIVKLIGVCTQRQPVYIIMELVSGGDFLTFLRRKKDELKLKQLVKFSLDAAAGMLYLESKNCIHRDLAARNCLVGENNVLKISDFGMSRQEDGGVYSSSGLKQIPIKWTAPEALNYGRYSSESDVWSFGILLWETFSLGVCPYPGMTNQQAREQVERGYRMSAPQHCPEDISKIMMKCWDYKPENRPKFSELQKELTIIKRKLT
Experiment [4] concerns the target MAP kinase-activated protein kinase 3 (Homo sapiens) (UniProt Q16644). Nature of the experiment: Inhibition of human MAPKAPK3 at 500 nM by HotSpot assay relative to control.
Experiment [5] has as its target T2, Ephrin type-A receptor 8 (Homo sapiens) (UniProt P29322).
T2 sequence (whole entry): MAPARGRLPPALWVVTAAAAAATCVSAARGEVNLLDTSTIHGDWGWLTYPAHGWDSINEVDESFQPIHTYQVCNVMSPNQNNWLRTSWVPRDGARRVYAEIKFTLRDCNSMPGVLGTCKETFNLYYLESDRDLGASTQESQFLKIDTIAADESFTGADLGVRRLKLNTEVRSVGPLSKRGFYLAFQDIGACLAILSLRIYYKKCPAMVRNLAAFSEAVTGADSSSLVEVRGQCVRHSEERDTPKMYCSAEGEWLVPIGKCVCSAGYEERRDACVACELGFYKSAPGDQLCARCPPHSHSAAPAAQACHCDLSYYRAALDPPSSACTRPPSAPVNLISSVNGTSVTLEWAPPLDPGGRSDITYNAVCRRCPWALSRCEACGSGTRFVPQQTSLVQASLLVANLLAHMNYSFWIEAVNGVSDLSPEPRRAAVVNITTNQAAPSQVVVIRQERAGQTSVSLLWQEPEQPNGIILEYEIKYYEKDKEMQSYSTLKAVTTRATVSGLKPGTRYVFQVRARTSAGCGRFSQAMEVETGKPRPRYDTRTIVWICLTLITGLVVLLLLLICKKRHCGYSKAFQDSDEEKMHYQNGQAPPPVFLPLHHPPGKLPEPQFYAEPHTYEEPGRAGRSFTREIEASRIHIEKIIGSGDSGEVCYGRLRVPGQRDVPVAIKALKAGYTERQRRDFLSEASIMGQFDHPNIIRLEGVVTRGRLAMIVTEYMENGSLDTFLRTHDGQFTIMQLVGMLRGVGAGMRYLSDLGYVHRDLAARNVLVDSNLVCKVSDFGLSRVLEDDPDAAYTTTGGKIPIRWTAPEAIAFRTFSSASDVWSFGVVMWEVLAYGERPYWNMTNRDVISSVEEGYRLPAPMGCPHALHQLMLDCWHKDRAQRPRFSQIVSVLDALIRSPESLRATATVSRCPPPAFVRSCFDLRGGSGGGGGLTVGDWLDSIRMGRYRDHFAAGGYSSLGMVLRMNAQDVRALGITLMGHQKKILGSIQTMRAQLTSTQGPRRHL
Nature of the experiment: Inhibition of human EPHA8 at 500 nM by HotSpot assay relative to control.

In experiment [6] the target is T3, Mitogen-activated protein kinase kinase kinase kinase 2 (Homo sapiens) (UniProt Q12851).
T3 sequence (whole entry): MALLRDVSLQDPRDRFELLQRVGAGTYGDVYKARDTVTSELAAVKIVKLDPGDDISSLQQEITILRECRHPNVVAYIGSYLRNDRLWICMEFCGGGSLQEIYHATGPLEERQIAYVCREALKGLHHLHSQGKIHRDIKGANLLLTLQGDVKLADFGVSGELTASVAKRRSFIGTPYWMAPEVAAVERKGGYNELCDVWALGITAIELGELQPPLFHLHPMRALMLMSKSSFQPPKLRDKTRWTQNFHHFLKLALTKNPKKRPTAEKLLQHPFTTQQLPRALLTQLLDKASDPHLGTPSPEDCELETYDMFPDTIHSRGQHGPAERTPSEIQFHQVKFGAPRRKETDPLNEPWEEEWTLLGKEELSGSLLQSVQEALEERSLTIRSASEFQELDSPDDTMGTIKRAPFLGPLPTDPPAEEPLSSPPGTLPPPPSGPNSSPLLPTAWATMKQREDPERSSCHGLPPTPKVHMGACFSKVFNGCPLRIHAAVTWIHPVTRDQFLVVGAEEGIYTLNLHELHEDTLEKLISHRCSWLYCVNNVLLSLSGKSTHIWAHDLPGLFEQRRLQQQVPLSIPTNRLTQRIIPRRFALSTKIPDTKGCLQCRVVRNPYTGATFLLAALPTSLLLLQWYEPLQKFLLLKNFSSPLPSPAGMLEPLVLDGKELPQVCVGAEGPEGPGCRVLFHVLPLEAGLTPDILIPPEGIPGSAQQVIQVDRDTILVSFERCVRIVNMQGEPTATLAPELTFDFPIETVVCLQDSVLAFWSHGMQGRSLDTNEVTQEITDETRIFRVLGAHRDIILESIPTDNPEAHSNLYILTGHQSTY
Nature of the experiment: Inhibition of human GCK at 500 nM by HotSpot assay relative to control.

Experiment [7] concerns the target Focal adhesion kinase 1 (Homo sapiens) (UniProt Q05397). Nature of the experiment: Inhibition of human FAK at 500 nM by HotSpot assay relative to control.

MAP kinase-activated protein kinase 3 (Homo sapiens), sequence (Q16644 whole entry, looked up): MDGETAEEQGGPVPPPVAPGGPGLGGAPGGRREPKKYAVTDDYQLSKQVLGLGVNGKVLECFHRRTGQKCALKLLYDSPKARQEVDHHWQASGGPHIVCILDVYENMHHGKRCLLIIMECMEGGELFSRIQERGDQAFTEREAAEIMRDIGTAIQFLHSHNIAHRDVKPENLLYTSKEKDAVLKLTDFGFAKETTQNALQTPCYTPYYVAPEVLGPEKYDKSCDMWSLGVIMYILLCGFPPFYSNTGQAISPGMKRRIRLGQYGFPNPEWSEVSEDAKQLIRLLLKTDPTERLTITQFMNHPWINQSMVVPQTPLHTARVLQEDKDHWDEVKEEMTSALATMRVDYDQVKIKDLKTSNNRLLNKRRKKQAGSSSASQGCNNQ
Focal adhesion kinase 1 (Homo sapiens), sequence (Q05397 2-1052 limits assumed): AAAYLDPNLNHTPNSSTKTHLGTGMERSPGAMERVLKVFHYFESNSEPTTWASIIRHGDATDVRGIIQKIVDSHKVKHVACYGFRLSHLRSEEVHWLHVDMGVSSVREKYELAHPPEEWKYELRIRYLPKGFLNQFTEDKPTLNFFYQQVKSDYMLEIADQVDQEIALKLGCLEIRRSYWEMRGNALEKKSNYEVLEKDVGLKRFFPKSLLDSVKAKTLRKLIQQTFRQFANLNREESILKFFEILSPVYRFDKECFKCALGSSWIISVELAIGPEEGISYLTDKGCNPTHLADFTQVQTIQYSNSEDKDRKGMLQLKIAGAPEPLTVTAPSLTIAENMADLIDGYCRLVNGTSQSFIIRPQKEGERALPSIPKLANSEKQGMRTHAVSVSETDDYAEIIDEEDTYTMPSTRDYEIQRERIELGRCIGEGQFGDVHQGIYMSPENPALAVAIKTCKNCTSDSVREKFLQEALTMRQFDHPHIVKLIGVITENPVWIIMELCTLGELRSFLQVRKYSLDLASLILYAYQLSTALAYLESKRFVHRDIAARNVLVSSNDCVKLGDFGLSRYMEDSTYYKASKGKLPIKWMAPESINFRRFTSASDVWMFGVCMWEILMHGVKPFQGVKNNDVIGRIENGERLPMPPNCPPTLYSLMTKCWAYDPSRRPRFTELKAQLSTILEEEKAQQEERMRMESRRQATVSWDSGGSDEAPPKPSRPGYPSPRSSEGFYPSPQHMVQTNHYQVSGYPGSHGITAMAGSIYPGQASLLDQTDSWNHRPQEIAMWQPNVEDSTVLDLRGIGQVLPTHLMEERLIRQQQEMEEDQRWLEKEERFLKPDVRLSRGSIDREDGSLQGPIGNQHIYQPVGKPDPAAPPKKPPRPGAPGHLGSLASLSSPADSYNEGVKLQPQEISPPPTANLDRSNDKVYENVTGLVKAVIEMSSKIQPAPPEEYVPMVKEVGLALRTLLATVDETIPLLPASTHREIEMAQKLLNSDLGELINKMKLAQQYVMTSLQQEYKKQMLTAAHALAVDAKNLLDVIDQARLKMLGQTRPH
Serine/threonine-protein kinase Nek7 (Homo sapiens), sequence (Q8TDX7 whole entry, looked up): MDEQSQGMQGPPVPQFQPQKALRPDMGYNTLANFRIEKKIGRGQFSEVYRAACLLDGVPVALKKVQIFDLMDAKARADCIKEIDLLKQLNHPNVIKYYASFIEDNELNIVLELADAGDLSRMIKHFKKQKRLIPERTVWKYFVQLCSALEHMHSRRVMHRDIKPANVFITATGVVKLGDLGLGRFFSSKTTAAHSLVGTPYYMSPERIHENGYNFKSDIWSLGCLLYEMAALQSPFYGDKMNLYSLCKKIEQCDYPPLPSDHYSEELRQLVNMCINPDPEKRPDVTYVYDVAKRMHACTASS

`Nc1n[nH]c2nnc(-c3c(-c4ccccc4)nn4ccccc34)cc12`: the inhibition was 41.1% in experiment [1]; 4.72% in experiment [2]; 9.19% in experiment [3]; -2.71% in experiment [4]; -0.31% in experiment [5]; 1.42% in experiment [6]. For the same compound, the inhibition in experiment [7] came to 0.84%.
In the case of `Oc1n[nH]c2nnc(-c3c(-c4ccccc4)nn4ccccc34)cc12`, the inhibition is 1.12% in experiment [1]; 3.15% in experiment [2]; 17.4% in experiment [3]; -0.14% in experiment [4]; -2.05% in experiment [5]; -5.76% in experiment [6]. Further, the inhibition in experiment [7] is -3.2%.
